Assay results: PubChem BioAssay AID1134 (Emory University Molecular Libraries Screening Center, 2008)

Key:
[1] = target: Ubiquitin carboxyl-terminal hydrolase BAP1 (Homo sapiens) (UniProt Q92560); assay: BAP1 inhibitor potency and UCH-L1 selectivity, dose response, selectivity assay, biochemical, ubiquitin-rhodamine110-glycine substrate (AID 1134); conditions: recombinant BAP1, ubiquitin-rhodamine110 cleavage fluorescence kinetic
[2] = as above; conditions: recombinant BAP1, ubiquitin-rhodamine110 cleavage fluorescence kinetic; measured here: UCH-L1 counter-screen IC50

Chain of Ubiquitin carboxyl-terminal hydrolase BAP1 (Homo sapiens) (Q92560 whole entry, looked up): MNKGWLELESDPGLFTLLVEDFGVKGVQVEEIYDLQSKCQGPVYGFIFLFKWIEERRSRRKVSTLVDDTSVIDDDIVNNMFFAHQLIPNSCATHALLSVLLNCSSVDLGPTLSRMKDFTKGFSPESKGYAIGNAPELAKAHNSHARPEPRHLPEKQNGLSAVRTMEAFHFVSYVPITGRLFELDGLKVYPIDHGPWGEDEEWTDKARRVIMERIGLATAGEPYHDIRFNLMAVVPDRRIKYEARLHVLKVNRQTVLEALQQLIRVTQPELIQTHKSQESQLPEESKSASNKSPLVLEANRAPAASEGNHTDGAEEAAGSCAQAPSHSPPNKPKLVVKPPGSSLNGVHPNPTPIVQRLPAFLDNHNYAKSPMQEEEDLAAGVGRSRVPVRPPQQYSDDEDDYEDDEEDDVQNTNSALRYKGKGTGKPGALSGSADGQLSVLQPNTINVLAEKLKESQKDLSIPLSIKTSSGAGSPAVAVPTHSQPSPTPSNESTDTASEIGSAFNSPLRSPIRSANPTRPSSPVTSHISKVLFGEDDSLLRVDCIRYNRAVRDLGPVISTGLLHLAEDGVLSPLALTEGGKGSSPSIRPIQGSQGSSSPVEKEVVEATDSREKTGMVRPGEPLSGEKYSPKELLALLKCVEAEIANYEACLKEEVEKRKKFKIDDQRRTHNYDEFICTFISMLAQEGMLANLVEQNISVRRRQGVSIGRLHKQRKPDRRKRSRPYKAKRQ

Cc1sc(NC(=O)CSc2nnc(-c3ccncc3)o2)c(C#N)c1-c1ccc(F)cc1
IC50 [1]: 8.8 µM

Cc1ccc(-c2c(C)sc(NC(=O)CSc3nnc(-c4ccc(F)cc4)o3)c2C#N)cc1C
IC50 [2]: 26 µM
IC50 [1]: 3.95 µM

Cc1ccccc1Nc1nnc(SCC(=O)Nc2sc(C)c(-c3ccc(F)cc3)c2C#N)s1
IC50 [1]: 8.8 µM

Cc1sc(NC(=O)CSc2nnc(-c3cccnc3)o2)c(C#N)c1-c1ccc(F)cc1
IC50 [1]: 35.4 µM

Cc1sc(NC(=O)CSc2nnc(-c3ccc(Br)cc3)o2)c(C#N)c1-c1ccc(F)cc1
IC50 [2]: 16.9 µM
IC50 [1]: 0.9 µM

Cc1ccc(-c2c(C)sc(NC(=O)CSc3nnc(-c4ccc(Cl)cc4)o3)c2C#N)cc1C
IC50 [2]: 7.55 µM
IC50 [1]: 5.19 µM

Cc1sc(NC(=O)CSc2nnc(N3CCOCC3)o2)c(C#N)c1-c1ccc(F)cc1
IC50 [1]: 16.8 µM

Cc1sc(NC(=O)CSc2nnc(-c3ccc(Cl)cc3)o2)c(C#N)c1-c1ccccc1
IC50 [2]: 13.7 µM
IC50 [1]: 1.88 µM

Cc1sc(NC(=O)CSc2nnc(-c3ccc(O)cc3)o2)c(C#N)c1-c1ccc(F)cc1
IC50 [1]: 15.3 µM

Cc1sc(NC(=O)CSc2nnc(-c3ccc(Cl)cc3)o2)c(C(N)=O)c1-c1ccc(F)cc1
IC50 [1]: 3.88 µM

Cc1ccccc1Nc1nnc(SCC(=O)NCc2ccco2)s1
IC50 [1]: 17.4 µM

O=C(CSc1nnc(-c2ccc(Cl)cc2)o1)Nc1cc(-c2ccc(F)cc2)[nH]n1
IC50 [2]: 51.9 µM
IC50 [1]: 0.86 µM

Cc1sc(NC(=O)CSc2nnc(Cc3ccc(Cl)cc3)o2)c(C#N)c1-c1ccc(F)cc1
IC50 [1]: 6.22 µM

Cc1sc(NC(=O)CSc2nccc(-c3ccc(Cl)cc3)n2)c(C#N)c1-c1ccc(F)cc1
IC50 [2]: 47.6 µM
IC50 [1]: 1.58 µM

COC(=O)c1c(NC(=O)CSc2nnc(-c3ccc(Cl)cc3)o2)sc(C)c1-c1ccc(F)cc1
IC50 [2]: 23.6 µM
IC50 [1]: 3.59 µM

Cc1sc(NC(=O)CSc2nnc(-c3ccc(Cl)cc3)o2)c(C#N)c1-c1ccc(F)cc1
IC50 [2]: 21.2 µM
IC50 [1]: 0.81 µM

Cc1sc(NC(=O)CSc2nnc(-c3ccc(Cl)nc3)o2)c(C#N)c1-c1ccc(F)cc1
IC50 [2]: 13.6 µM
IC50 [1]: 2.81 µM

Cc1sc(NC(=O)CSc2nnc(-c3ccc(O)cc3)o2)c(C#N)c1-c1ccc(Cl)cc1Cl
IC50 [1]: 3.7 µM

Cc1sc(NC(=O)CSc2nnc(-c3ccc(O)cc3O)o2)c(C#N)c1-c1ccc(F)cc1
IC50 [1]: 5.62 µM

O=C(CSc1nnc(-c2ccc(O)cc2)o1)Nc1cc(-c2ccc(F)cc2)[nH]n1
IC50 [1]: 14.4 µM

CCOC(=O)c1cnc(SCC(=O)Nc2sc(C)c(C)c2C#N)nc1N
IC50 [2]: 44.3 µM
IC50 [1]: 2.54 µM

Cc1sc(NC(=O)CSc2nnc(-c3ccc(N)cc3)o2)c(C#N)c1-c1ccc(F)cc1
IC50 [1]: 40.1 µM

O=C(NCc1ccco1)c1cc2nc(-c3ccc4c(c3)OCO4)cc(C(F)(F)F)n2n1
IC50 [1]: 15.4 µM

Cc1sc(NC(=O)CSc2nnc(-c3ccc(I)cc3)o2)c(C#N)c1-c1ccc(F)cc1
IC50 [2]: > 100 µM
IC50 [1]: 2.76 µM

Cc1sc(NC(=O)CSc2nccc(-c3ccc(Cl)cc3)n2)c(C#N)c1C
IC50 [1]: 4.82 µM

COC(=O)c1c(NC(=O)CSc2nnc(-c3ccc(O)cc3)o2)sc(C)c1-c1ccc(F)cc1
IC50 [1]: 6.07 µM

Cc1sc(NC(=O)CSc2n[nH]c(-c3ccc(O)cc3)n2)c(C#N)c1-c1ccc(F)cc1
IC50 [2]: 10.1 µM
IC50 [1]: 2.19 µM

Cc1sc(NC(=O)CSc2nnc(-c3ccc(Cl)cc3)o2)c(C#N)c1-c1ccc(Cl)cc1Cl
IC50 [2]: 13.8 µM
IC50 [1]: 1.15 µM

Cc1sc(NC(=O)CSc2nnc(-c3ccc(Cl)cc3)o2)c(C#N)c1-c1ccc(CC(C)C)cc1
IC50 [2]: 20.6 µM
IC50 [1]: 3.73 µM

Cc1sc(NC(=O)CSc2nnc(-c3ccc(O)cc3)o2)c(C#N)c1-c1ccc(CC(C)C)cc1
IC50 [1]: 4.77 µM

Cc1sc(NC(=O)CSc2n[nH]c(-c3ccc(O)cc3)n2)c(C#N)c1C
IC50 [1]: 31.1 µM
